Experimental data: ChEMBL document CHEMBL4308836, “Inhibitors of Mutant Isocitrate Dehydrogenases 1 and 2 (mIDH1/2): An Update and Perspective” (J Med Chem, 2018)
Blank lines part the entries; values can stand above or below the compound they belong to.

Assays:
[1] = target: T1, Isocitrate dehydrogenase [NADP] cytoplasmic (Homo sapiens, UniProt O75874, R132C); experiment: Inhibition of IDH1 R132C mutant (unknown origin) by kinase-Glo luminescent assay
[2] = target: T2, Isocitrate dehydrogenase [NADP], mitochondrial (Homo sapiens, UniProt P48735, R172K); experiment: Inhibition of IDH2 R172K mutant (unknown origin) using alpha-KG as substrate after 90 mins in presence of NADPH by RF/MS analysis
[3] = target: T3, Isocitrate dehydrogenase [NADP] cytoplasmic (Homo sapiens, UniProt O75874, R132H); experiment: Inhibition of IDH1 R132H mutant (unknown origin) using alpha-KG as substrate after 90 mins
[4] = target: T1, Isocitrate dehydrogenase [NADP] cytoplasmic; experiment: Inhibition of IDH1 R132C mutant (unknown origin) using alpha-KG as substrate after 60 mins by resazurin based assay
[5] = target: T3, Isocitrate dehydrogenase [NADP] cytoplasmic; experiment: Inhibition of N-terminal His-tagged IDH1 R132H mutant (unknown origin) expressed in Escherichia coli using alpha-KG as substrate assessed as decrease in D-2-HG production after 90 mins by quadrupole mass spectrometry
[6] = target: T1, Isocitrate dehydrogenase [NADP] cytoplasmic; experiment: Inhibition of N-terminal His-tagged IDH1 R132C mutant (unknown origin) expressed in Escherichia coli using alpha-KG as substrate assessed as decrease in D-2-HG production after 90 mins by quadrupole mass spectrometry
[7] = target: T1, Isocitrate dehydrogenase [NADP] cytoplasmic; experiment: Inhibition of IDH1 R132C mutant (unknown origin) assessed as reduction in NADPH consumption using alpha-KG as substrate incubated for 45 mins by diaphorase and resazurin dye based assay
[8] = target: T3, Isocitrate dehydrogenase [NADP] cytoplasmic; experiment: Inhibition of IDH1 R132H mutant (unknown origin) assessed as reduction in NADPH consumption using alpha-KG as substrate incubated for 45 mins by diaphorase and resazurin dye based assay
[9] = target: T1, Isocitrate dehydrogenase [NADP] cytoplasmic; experiment: Inhibition of IDH1 R132C mutant (unknown origin) catalytic activity using alpha-KG as substrate assessed as decrease in D-2-HG production after 45 mins by LC-MS/MS analysis
[10] = target: T3, Isocitrate dehydrogenase [NADP] cytoplasmic; experiment: Inhibition of IDH1 R132H mutant (unknown origin) catalytic activity using alpha-KG as substrate assessed as decrease in D-2-HG production after 45 mins by LC-MS/MS analysis
[11] = target: T3, Isocitrate dehydrogenase [NADP] cytoplasmic; experiment: Inhibition of IDH1 R132H mutant (unknown origin) using alpha-KG after 105 mins by NADPH depletion assay
[12] = target: T1, Isocitrate dehydrogenase [NADP] cytoplasmic; experiment: Inhibition of IDH1 R132C mutant (unknown origin) using alpha-KG after 105 mins by NADPH depletion assay
[13] = target: T2, Isocitrate dehydrogenase [NADP], mitochondrial; experiment: Inhibition of IDH2 R172K mutant (40 to end residues) (unknown origin) using alpha-KG as substrate after 120 mins in presence of NADPH by resazurin-based assay
[14] = target: T3, Isocitrate dehydrogenase [NADP] cytoplasmic; experiment: Inhibition of IDH1 R132H mutant (unknown origin) assessed as reduction in NADPH consumption by diaphorase/resazurin-based assay
[15] = target: T1, Isocitrate dehydrogenase [NADP] cytoplasmic; experiment: Inhibition of IDH1 R132C mutant (unknown origin) assessed as reduction in NADPH consumption by diaphorase/resazurin-based assay
[16] = target: T4, Isocitrate dehydrogenase [NADP], mitochondrial (Homo sapiens, UniProt P48735, R140Q); experiment: Inhibition of IDH2 R140Q mutant (unknown origin) using alpha-KG as substrate after 60 mins in presence of NADPH by resazurin-based assay
[17] = target: T3, Isocitrate dehydrogenase [NADP] cytoplasmic; experiment: Inhibition of IDH1 R132H mutant (unknown origin) assessed as reduction in NADPH consumption using alpha-KG as substrate by luminescence based assay
[18] = target: T4, Isocitrate dehydrogenase [NADP], mitochondrial; experiment: Inhibition of IDH2 R140Q mutant in human U87MG cells assessed as reduction in 2-HG levels after 48 hrs […]; assay type: cell-based
[19] = target: T2, Isocitrate dehydrogenase [NADP], mitochondrial; experiment: Inhibition of IDH2 R172K mutant (unknown origin) using alpha-KG as substrate after 60 mins in presence of NADPH by resazurin-based assay

T3 sequence (O75874 2-414 R132H limits assumed): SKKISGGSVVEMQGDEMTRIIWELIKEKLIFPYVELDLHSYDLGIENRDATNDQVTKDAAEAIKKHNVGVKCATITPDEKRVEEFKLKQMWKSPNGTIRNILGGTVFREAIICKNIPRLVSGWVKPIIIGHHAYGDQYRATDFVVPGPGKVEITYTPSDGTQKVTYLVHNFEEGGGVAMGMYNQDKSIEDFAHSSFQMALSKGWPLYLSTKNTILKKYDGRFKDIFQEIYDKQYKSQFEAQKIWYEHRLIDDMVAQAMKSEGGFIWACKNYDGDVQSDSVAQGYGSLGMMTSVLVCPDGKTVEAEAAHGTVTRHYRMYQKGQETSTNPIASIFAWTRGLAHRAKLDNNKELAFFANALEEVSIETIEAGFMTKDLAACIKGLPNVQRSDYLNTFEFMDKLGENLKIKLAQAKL
T4 sequence (P48735 40-452 R140Q limits assumed): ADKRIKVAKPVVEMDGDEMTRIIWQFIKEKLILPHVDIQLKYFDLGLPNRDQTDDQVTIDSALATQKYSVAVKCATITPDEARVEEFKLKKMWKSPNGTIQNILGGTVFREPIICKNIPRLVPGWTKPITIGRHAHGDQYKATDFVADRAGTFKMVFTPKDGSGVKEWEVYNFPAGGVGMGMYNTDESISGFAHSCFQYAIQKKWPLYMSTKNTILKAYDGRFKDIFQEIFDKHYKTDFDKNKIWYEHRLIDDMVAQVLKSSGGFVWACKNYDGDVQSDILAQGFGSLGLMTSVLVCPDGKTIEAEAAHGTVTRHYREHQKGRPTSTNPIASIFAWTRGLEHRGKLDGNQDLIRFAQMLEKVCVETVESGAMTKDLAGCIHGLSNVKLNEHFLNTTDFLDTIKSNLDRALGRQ
T2 sequence (P48735 40-452 R172K limits assumed): as the sequence (P48735 40-452 R140Q limits assumed) above, with Q101R, R133K counted along it
T1 sequence (O75874 2-414 R132C limits assumed): as the sequence (O75874 2-414 R132H limits assumed) above, with H131C counted along it

- IC50 [9]: < 0.1 µM
- IC50 [10]: < 0.1 µM
Structure (SMILES): C[C@H](Nc1nccc(N2C(=O)C[C@@H](O)[C@H]2Cc2ccccc2)n1)c1cn(-c2ccc(Cl)cc2)cn1

- IC50 [11]: < 0.3 µM
- IC50 [12]: < 0.3 µM
Structure (SMILES): CCc1ccc(Cl)cc1-n1c(C=C(C)C)c(C(=O)N2CCNCC2)cc(-c2nc(-c3ccc(Cl)cc3)cs2)c1=O

- IC50 [14]: < 0.1 µM
- IC50 [15]: < 0.1 µM
Structure (SMILES): COCCO[C@H]1CC(C(=O)OC)[C@H](C(=O)N(c2cccc(F)c2)[C@H](C(=O)NC2CC(F)(F)C2)c2ccccc2Cl)C1 (stereo not given in full)

- IC50 [17]: < 0.01 µM
Structure (SMILES): COc1cc2c(cc1CCC(=O)O)nc(Nc1ccc(OC(F)(F)F)cc1)n2[C@@H]1C[C@H](C)CC(C)(C)C1

- IC50 [7]: < 0.01 µM
- IC50 [8]: < 0.01 µM
Structure (SMILES): COc1cc(N[C@@H](C)c2cc3cc(Cl)c(OCc4ccccn4)cc3[nH]c2=O)ccc1C#N

- IC50 [7]: 0.05 µM
- IC50 [8]: 0.59 µM
Structure (SMILES): CNS(=O)(=O)c1cccc(NC(=O)c2nn(Cc3ccccc3)c(=O)c3ccccc23)c1

- IC50 [18]: ≤ 0.1 µM
- IC50 [16]: ≤ 0.1 µM
- IC50 [19]: ≤ 0.1 µM
Structure (SMILES): c1ccc(Nc2nc(NC3CC3)nc(-c3ccccc3)n2)cc1

- IC50 [3]: 0.028 µM
Structure (SMILES): C[C@@H](Nc1nc(N2C(=O)OC[C@@H]2c2ccccc2)c2cn[nH]c2n1)c1cn(-c2ccc(Cl)cc2)cn1

- IC50 [14]: < 0.1 µM
- IC50 [15]: < 0.1 µM
Structure (SMILES): O=C(NC1CC(F)(F)C1)[C@@H](c1ccccc1Cl)N(C(=O)[C@H](CO)Nc1ncccn1)c1cccc(F)c1

- IC50 [7]: < 0.01 µM
- IC50 [8]: < 0.01 µM
Structure (SMILES): COc1cc(N[C@@H](C)c2cc3cc(Cl)ccc3[nH]c2=O)ccc1C#N

- IC50 [7]: < 0.01 µM
- IC50 [8]: < 0.01 µM
Structure (SMILES): COc1cc(N[C@@H](C)c2cc3cc(Cl)c(OCCn4ccnc4C)cc3[nH]c2=O)ccc1C#N

The next lines start with the compound.

Structure (SMILES): Cn1nccc1-c1cc2c(cc1F)Nc1ncc(F)cc1CN2C(=O)C1CCN(CC(F)(F)F)CC1
- IC50 [1]: 0.0035 µM

Structure (SMILES): Cc1cc([C@@H](C)Nc2nc(N3C(=O)OC[C@@H]3C(C)C)c3cc[nH]c3n2)ncc1-c1ccnc(C(F)(F)F)c1
- IC50 [2]: 0.006 µM
- IC50 [3]: 0.002 µM

Structure (SMILES): CC(C)[C@H]1CNC(=O)N1c1ccnc(NC2(c3cn(-c4ccc(Cl)cc4)cn3)CC2)n1
- IC50 [4]: < 0.1 µM

Structure (SMILES): C=CC(=O)N1CC(OCc2ccc([C@H](C)Nc3ncc4c(n3)N(CC(C)C)C(=O)OC4)cc2)C1
- IC50 [5]: < 0.1 µM
- IC50 [6]: < 0.1 µM

Structure (SMILES): CC(C)[C@H]1COC(=O)N1c1ccnc(NC2(c3cn(-c4ccc(Cl)cc4)cn3)CC2)n1
- IC50 [4]: < 0.1 µM

Structure (SMILES): COc1cc2[nH]c(=O)c([C@H](C)Nc3ncc(C#N)c(OC)n3)cc2cc1Cl
- IC50 [7]: < 0.01 µM
- IC50 [8]: < 0.01 µM

Structure (SMILES): C[C@H](Nc1ncc(F)c(N2C(=O)[C@@H]3CC[C@H]2C3)n1)c1nc(-c2ccc(Cl)cc2)no1
- IC50 [9]: < 0.1 µM
- IC50 [10]: < 0.1 µM

Structure (SMILES): FC(F)(F)c1cc(Nc2nc(NOCC3CC3)nc(-c3cccc(C(F)(F)F)n3)n2)ccn1
- IC50 [13]: < 0.05 µM

Structure (SMILES): C[C@H](O)[C@@H]1COC(=O)N1c1nc(N[C@H](C)c2cn(-c3ccc(F)cc3)cn2)nc2ccsc12
- IC50 [3]: 0.028 µM

Structure (SMILES): O=C(C1CCN(CC(F)(F)F)CC1)N1Cc2cc(F)cnc2Nc2cc(F)c(N3CC4(CCCOC4)C3)cc21
- IC50 [1]: < 0.01 µM

Structure (SMILES): [2H]C([2H])([2H])C([2H])(C([2H])([2H])[2H])C([2H])([2H])Nc1nc(Nc2ccnc(C(F)(F)F)c2)nc(-c2cccc(C(F)(F)F)n2)n1
- IC50 [16]: 0.36 µM

Structure (SMILES): C[C@H](Nc1nc(N2C(=O)OC[C@@H]2[C@H](C)F)c2cc[nH]c2n1)c1cn(-c2ccc(Cl)cc2)cn1
- IC50 [2]: 0.006 µM
- IC50 [3]: 0.002 µM

Structure (SMILES): C[C@H](Nc1nccc(N2C(=O)CCC2(C)C)n1)c1cn(-c2ccc(Cl)cc2)cn1
- IC50 [9]: < 0.1 µM
- IC50 [10]: < 0.1 µM
